Where “and” joins values, the source holds several entries; their conditions need not be identical. Equal entries are not always repeated. Where two headings read alike, the source gives them in different places.
What was measured:
Safety and tolerability [1] = format: in vivo, patients with advanced solid tumours; conditions: both arms; talazoparib alone or together with itraconazole or rifampicin
[2] = format: in vivo, patients with advanced solid tumours; conditions: for CL/F: geometric mean (CV%)
enzymes or transporters = conditions: at therapeutic exposures; cited from earlier work
[3] = cited from earlier work
P‐glycoprotein (P‐gp) = conditions: in vitro; cited from earlier work
[4] = cited from earlier work; remark: listed apart in the source
Safety and tolerability [5] = format: in vivo, patients with advanced solid tumours; conditions: whole Arm B
[6] = cited from earlier work; remark: listed apart in the source
[7] = tested on: breast cancer resistance protein; conditions: in vitro; cited from earlier work
[8] = population PK, cited from earlier work
[9] = format: in vivo, patients with advanced solid tumours; conditions: for CL/F / variability of talazoparib Cmax: Arm B; for CL/F: geometric mean (CV%)
[10] = Phase 1 dose escalation study; cited from earlier work
[11] = coadministration of itraconazole
[12] = talazoparib + itraconazole vs talazoparib alone
[13] = based on urinary excretion data, single 1 mg oral dose
[14] = talazoparib + rifampicin vs talazoparib alone
[15] = talazoparib + rifampicin vs talazoparib alone, listed as talazoparib

Cn1ncnc1[C@H]1c2n[nH]c(=O)c3cc(F)cc(c23)N[C@@H]1c1ccc(F)cc1 [Talazoparib, talazoparib]
overall tolerability (Safety and tolerability [1]): generally well tolerated | AUClast, adjusted geometric mean ([2]; Arm A talazoparib alone (reference), mixed effects model): 98,532.3 h pg/mL | CL/F ([2]; Arm A, single oral 0.5 mg talazoparib + itraconazole): 12 3.3 (36.0) L/h | Tmax ([2]; Arm A, single oral 0.5 mg talazoparib + itraconazole, median (range)): 15 1.0 (0.5–4.0) h | CL/F ([2]; Arm A, single oral 0.5 mg talazoparib alone): 18 4.6 (42.0) L/h | increase in talazoparib AUCinf relative to talazoparib alone [2, 11]: ~ 56% and 56% | increase in talazoparib Cmax relative to talazoparib alone [2, 11]: ~ 40% and 40% | AUC(0-inf) ([2]; human, plasma, oral, 0.5 mg): 110 ng·h/mL | Cmax ([2]; human, plasma, oral, 0.5 mg): 2.09 ng/mL | Cmax ([2]; human, plasma, po, 0.5 mg): 2.09 ng/mL | Vd/F ([2]; human, plasma, po, 0.5 mg): 645 L | half-life ([2]; human, plasma, po, 0.5 mg): 4.22 days | AUCinf geometric mean ratio (test/reference), % (90% CI) [2, 12]: 156.2 (137.6, 177.4) % | AUClast geometric mean ratio (test/reference), % (90% CI) [2, 12]: 150.7 (136.5, 166.4) % | Cmax geometric mean ratio (test/reference), % (90% CI) [2, 12]: 139.9 (113.3, 172.9) % | induction or inhibition of enzymes or transporters (enzymes or transporters): does not markedly induce or inhibit | patients who permanently discontinued treatment due to a haematological AE [3]: 1.4% | progression-free survival vs physician's choice of chemotherapy [3]: statistically significant and clinically meaningful improvement | patients with Grade 3–4 AEs (primarily haematological) ([3]; patients on talazoparib): 55% | substrate for P-gp (P‐glycoprotein (P‐gp)): substrate | effect of food on talazoparib AUCinf [4]: no effect | effect of food on talazoparib Cmax [4]: reduced | patients who discontinued treatment due to AEs (Safety and tolerability [5]): 11.8% | patients who discontinued treatment due to study-drug related AE (Safety and tolerability [5]): 5.9% | absolute bioavailability [6, 13]: at least 54.6% | fraction absorbed [6, 13]: at least 68.7% | hepatic metabolism [6]: minimal | major elimination pathway [6]: renal excretion of unchanged talazoparib | substrate for breast cancer resistance protein [7]: substrate | increase in relative bioavailability of talazoparib by potent P-gp inhibitors ([8]; data pooled from multiple clinical trials): 45% | increase in relative bioavailability of talazoparib by potent P-gp inhibitors ([8]; first-in-human, Phase 2 and 3 studies): 44.7% | CL/F ([9]; single oral 1.0 mg talazoparib + rifampicin): 12 5.2 (36.0) L/h | CL/F ([9]; single oral 1.0 mg talazoparib alone): 17 4.8 (34.0) L/h | variability of talazoparib Cmax ([9]; talazoparib alone): 53% | variability of talazoparib Cmax ([9]; with rifampicin administration): 71% | increase in talazoparib Cmax relative to talazoparib alone ([9]; coadministration of rifampicin): approximately 37% | Cmax ([9]; human, plasma, oral, 1 mg): 6.01 ng/mL | Cmax ([9]; human, plasma, po, 1 mg): 6.01 ng/mL | Tmax ([9]; human, plasma, po, 1 mg): 1 h | Vd/F ([9]; human, plasma, po, 1 mg): 624 L | half-life ([9]; human, plasma, po, 1 mg): 3.84 days | AUCinf geometric mean ratio (test/reference), % (90% CI) [9, 14]: 102.0 (94.0, 110.7) % | AUClast geometric mean ratio (test/reference), % (90% CI) [9, 14]: 105.4 (98.0, 113.2) % | Cmax geometric mean ratio (test/reference), % (90% CI) [9, 14]: 136.6 (103.2, 180.9) % | AUCinf geometric mean ratio (test/reference), % (90% CI) [9, 15]: 102.0% | Cmax geometric mean ratio (test/reference), % (90% CI) [9, 15]: 136.6% | maximum tolerated dose (MTD) [10]: 1 mg once daily (QD)

From paper PMC7098856 (British Journal of Clinical Pharmacology, 2020)
